According to ChEMBL document CHEMBL1201862, “PubChem BioAssay data set” (2004):
Active and inactive are the calls of the source.

Experiments:
[1] = target: Voltage-dependent T-type calcium channel subunit alpha-1H (Homo sapiens, UniProt O95180); assay type: functional;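 note: channel activity triggered by adding a high calcium stimulation buffer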
[2] = target: Nonstructural protein 1 (Influenza A virus, UniProt Q194T2); assay type: functional, Influenza A virus (A/California/07/2009(H1N1))
[3] = target: T1, Short transient receptor potential channel 4 (Mus musculus, UniProt Q9QUQ5); experiment: block of DAMGO-driven TRPC4 calcium entry – cell-based, HEK293 TRPC4/mu-opioid, Fluo-4 calcium, dose response (AID 434942); assay type: functional;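 note: potency of inhibitors blocking the TRPC4 calcium response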
T1 sequence (Q9QUQ5 whole entry): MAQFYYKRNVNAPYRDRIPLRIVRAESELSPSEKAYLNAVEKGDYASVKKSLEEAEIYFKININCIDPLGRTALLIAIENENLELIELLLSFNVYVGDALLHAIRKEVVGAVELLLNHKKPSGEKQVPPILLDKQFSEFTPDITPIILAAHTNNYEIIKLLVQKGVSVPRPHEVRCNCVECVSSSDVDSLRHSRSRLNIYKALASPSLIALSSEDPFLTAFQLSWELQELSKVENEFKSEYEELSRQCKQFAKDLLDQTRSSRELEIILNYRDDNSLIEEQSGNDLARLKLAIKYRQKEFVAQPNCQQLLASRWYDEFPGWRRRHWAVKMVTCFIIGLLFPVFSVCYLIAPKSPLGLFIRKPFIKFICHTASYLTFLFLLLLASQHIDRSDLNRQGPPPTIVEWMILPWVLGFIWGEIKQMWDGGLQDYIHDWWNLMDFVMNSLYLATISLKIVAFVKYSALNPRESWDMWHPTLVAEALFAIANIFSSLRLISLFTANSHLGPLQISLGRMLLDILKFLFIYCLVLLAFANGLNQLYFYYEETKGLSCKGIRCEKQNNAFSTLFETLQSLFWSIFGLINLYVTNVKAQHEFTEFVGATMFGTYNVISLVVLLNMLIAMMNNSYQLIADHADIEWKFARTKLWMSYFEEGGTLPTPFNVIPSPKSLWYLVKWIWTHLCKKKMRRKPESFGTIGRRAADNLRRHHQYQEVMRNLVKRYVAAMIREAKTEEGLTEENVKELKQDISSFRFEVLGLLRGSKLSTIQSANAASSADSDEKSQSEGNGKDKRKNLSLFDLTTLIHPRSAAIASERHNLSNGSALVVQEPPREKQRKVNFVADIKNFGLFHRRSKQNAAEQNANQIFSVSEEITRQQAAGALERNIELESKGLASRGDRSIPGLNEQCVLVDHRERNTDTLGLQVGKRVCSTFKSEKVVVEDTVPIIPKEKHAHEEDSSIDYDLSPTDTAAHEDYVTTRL

[4] = target: G-protein coupled receptor 35 (Homo sapiens, UniProt Q9HC97); experiment: inhibition of zaprinast-stimulated GPR35 beta-arrestin translocation – imaging, U2OS, beta-arrestin-GFP, zaprinast agonist, primary screen (AID 2058); assay type: functional;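 note: antagonist potency meaning inhibition of agonist-induced arrestin redistribution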
Sequence of G-protein coupled receptor 35 (Q9HC97 whole entry): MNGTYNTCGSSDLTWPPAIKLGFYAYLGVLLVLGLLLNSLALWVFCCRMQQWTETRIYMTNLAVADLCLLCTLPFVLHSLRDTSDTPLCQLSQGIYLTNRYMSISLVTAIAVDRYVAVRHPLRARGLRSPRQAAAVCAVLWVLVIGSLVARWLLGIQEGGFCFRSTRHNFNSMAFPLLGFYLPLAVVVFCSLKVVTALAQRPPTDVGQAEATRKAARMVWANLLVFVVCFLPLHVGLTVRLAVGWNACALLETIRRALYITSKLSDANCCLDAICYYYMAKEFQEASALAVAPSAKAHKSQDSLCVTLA

[5] = target: T2, Zinc finger protein mex-5 (Caenorhabditis elegans, UniProt Q9XUB2); experiment: potency of MEX-5 RNA-binding blockers – biochemical, C. elegans, fluorescence polarization, dose response (AID 1960)
T2 sequence (Q9XUB2 whole entry): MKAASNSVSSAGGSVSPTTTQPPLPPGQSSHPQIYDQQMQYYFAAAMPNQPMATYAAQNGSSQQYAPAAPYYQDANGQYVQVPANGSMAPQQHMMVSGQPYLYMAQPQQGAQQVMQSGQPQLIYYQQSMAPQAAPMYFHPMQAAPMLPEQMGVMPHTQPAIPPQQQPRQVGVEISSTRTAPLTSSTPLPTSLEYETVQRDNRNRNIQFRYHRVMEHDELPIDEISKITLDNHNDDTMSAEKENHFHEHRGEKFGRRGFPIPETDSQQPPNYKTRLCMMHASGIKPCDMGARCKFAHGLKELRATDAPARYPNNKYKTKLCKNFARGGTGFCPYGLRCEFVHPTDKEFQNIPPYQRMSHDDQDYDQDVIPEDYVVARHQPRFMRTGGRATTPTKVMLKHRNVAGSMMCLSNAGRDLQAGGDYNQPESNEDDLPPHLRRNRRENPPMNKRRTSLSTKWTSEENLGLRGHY

[6] = viability of HCT116 lacking mutant beta-catenin – cell-based, human colon tumor, dose response (AID 1045); assay type: functional;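 note: HCT116 colon tumor cells with beta catenin knocked out; cells exposed to compound for 60 hours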
[7] = target: T3, RNA-binding protein pos-1 (Caenorhabditis elegans, UniProt G5EF15); experiment: disruptors of C. elegans POS-1 RNA interaction – biochemical, fluorescence polarization, dose response (AID 1964);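 note: purified POS-1 fused to maltose binding protein made in E. coli; potency of compounds blocking POS-1 binding to fluorescent RNA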
T3 sequence (G5EF15 whole entry): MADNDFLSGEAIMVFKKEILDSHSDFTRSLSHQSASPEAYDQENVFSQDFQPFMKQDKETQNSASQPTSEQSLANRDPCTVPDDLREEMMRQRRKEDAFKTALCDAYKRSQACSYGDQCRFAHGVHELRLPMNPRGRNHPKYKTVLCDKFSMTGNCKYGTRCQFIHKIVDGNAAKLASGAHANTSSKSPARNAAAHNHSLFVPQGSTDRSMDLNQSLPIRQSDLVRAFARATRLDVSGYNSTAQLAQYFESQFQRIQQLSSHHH

[8] = viability of PTEN-deleted HCT116 cells – cell-based, HCT116 PTEN knockout, dose response (AID 1047); assay type: functional;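 note: HCT116 colon tumor cells with PTEN knocked out; cells exposed to compound for 60 hours before readout; potency for loss of cell viability measured by luminescence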
[9] = target: T1, Short transient receptor potential channel 4; experiment: calcium entry via TRPC4 opening agents – cell-based, HEK293 TRPC4/mu-opioid, Fluo-4 calcium, dose response (AID 434937); assay type: functional
[10] = target: T4, Hexokinase (Trypanosoma brucei, UniProt Q38C41); experiment: Confirmation assay for inhibitors of Trypanosoma brucei hexokinase 1-Analogue-first series. [Related pubchem assays (depositor defined):AID1430, AID1632, AID2516, AID2560, AID2579, AID2600, AID449725, AID492951]; assay type: functional
T4 sequence (Q38C41 whole entry): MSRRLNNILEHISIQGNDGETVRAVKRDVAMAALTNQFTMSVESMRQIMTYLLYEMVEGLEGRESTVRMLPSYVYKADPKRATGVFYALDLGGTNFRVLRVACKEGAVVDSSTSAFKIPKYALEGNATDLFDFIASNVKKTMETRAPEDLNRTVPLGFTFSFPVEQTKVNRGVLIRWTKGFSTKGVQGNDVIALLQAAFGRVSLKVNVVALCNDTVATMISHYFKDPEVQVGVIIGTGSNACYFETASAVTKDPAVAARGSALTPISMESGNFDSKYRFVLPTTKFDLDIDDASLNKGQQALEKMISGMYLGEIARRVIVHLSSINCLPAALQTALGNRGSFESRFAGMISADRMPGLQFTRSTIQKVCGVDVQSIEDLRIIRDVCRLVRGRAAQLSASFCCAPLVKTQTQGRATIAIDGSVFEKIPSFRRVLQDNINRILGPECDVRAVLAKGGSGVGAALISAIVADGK

[11] = target: T5, Corticotropin-releasing factor receptor 2/Corticotropin-releasing factor-binding protein (Homo sapiens, UniProt P24387+Q13324); experiment: activators of CRF receptor 2 with binding protein – uHTS hits, confirmation (AID 602473); assay type: functional; conditions: read-out: EC50_Mean
T5 sequence (Q13324 whole entry): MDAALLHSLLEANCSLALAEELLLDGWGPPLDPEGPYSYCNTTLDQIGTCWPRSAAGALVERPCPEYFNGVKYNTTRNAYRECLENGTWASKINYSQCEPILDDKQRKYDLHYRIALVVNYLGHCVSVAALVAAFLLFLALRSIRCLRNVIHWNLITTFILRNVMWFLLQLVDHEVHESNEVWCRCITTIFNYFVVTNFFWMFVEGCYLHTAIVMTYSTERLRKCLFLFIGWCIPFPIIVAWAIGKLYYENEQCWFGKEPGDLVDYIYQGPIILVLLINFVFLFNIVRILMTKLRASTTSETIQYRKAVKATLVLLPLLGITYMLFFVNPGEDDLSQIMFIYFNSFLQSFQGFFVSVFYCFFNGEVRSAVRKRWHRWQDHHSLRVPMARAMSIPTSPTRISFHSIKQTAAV
T5 sequence (P24387 whole entry): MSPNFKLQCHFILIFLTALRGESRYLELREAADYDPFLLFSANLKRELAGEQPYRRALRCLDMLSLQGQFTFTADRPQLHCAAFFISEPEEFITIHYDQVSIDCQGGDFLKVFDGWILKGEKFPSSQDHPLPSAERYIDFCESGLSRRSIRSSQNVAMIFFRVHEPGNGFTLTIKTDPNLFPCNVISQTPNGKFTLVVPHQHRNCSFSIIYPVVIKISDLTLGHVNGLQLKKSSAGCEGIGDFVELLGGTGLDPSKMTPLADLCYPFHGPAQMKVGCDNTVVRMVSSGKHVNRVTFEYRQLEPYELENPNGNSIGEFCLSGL

[12] = target: T6, Endoribonuclease toxin MazF (Escherichia coli K-12, UniProt P0AE70); experiment: substrate-only fluorescence increase artefacts – biochemical, single-stranded RNase substrate, counter-screen for MazEF activator project, dose response (AID 588502); assay type: functional
T6 sequence (P0AE70 whole entry): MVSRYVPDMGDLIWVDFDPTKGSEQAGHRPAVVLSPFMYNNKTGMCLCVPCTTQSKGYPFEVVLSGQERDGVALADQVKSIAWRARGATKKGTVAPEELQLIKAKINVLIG

[13] = target: T6, Endoribonuclease toxin MazF; experiment: activation of MazEF endoribonuclease cleavage – biochemical, fluorescence, single-stranded RNA substrate, uHTS hits, dose response (AID 588481); assay type: functional

Sequence of Voltage-dependent T-type calcium channel subunit alpha-1H (O95180 whole entry): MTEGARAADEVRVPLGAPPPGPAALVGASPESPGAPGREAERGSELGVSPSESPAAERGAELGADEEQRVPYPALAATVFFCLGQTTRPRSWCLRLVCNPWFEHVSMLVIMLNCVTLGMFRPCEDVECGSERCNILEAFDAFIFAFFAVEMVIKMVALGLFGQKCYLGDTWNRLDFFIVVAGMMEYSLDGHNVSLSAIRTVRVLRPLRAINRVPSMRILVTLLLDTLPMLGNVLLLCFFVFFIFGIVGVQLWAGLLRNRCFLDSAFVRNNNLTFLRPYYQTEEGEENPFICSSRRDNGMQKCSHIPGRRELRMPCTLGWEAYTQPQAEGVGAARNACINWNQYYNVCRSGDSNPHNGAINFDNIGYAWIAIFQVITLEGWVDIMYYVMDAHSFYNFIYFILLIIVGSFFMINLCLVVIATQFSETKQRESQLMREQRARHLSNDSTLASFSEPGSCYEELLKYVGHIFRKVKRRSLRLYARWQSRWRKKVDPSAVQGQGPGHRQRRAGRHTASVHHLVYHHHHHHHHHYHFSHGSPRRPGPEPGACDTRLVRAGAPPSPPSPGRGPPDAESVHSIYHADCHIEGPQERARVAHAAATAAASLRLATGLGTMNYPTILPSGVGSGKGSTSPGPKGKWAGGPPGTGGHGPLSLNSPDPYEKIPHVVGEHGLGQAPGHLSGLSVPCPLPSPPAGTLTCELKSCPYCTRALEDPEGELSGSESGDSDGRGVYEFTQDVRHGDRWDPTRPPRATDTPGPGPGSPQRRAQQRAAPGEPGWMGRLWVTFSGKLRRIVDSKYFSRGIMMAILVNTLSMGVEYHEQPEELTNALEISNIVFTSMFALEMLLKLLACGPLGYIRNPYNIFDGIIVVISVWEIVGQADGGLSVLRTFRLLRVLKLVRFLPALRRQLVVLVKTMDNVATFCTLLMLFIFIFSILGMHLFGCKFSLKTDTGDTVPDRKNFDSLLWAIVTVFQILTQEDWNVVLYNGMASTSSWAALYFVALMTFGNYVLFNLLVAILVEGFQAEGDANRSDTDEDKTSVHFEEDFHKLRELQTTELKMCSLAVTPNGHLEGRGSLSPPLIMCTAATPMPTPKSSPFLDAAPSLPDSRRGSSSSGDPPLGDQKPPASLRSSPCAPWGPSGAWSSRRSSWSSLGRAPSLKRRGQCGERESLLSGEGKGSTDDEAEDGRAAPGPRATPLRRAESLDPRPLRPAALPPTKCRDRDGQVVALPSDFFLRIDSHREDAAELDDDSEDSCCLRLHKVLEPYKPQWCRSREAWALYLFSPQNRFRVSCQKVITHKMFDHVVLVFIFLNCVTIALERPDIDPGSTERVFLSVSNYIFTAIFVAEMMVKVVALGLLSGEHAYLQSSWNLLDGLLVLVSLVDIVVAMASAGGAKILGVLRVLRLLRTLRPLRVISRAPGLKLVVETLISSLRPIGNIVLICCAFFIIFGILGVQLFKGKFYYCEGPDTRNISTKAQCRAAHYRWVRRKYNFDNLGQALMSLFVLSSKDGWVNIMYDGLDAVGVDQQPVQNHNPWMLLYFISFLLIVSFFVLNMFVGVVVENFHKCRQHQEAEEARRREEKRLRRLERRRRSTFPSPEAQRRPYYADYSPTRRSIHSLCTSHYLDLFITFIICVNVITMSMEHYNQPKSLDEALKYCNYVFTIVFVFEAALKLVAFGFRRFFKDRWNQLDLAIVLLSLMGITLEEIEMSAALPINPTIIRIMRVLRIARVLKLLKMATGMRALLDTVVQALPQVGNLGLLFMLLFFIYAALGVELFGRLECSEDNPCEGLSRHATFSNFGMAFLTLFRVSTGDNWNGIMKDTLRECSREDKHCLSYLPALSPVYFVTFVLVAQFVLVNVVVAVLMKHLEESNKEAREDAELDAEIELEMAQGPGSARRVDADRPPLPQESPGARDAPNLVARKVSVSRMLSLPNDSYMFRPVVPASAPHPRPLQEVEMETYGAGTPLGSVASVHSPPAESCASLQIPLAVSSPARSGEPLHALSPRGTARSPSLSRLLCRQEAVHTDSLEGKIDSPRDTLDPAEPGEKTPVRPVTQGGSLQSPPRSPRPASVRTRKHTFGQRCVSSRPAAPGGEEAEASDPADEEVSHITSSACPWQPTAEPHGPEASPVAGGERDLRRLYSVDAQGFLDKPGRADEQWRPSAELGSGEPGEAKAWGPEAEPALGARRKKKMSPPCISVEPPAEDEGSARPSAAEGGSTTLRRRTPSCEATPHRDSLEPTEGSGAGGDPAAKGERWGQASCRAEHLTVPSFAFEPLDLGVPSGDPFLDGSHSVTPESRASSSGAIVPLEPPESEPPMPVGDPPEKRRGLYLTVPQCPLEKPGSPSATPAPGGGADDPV
Sequence of Nonstructural protein 1 (Q194T2 whole entry): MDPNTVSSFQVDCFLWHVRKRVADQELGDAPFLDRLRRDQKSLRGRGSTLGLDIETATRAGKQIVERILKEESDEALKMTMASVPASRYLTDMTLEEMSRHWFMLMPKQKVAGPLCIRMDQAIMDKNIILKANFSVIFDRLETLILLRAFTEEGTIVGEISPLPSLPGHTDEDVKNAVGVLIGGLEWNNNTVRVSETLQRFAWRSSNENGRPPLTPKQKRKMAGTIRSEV

Question: Which EC50 [1] does the source give for Cc1ccccc1NC(=O)c1sc2nc3c(c(-c4ccco4)c2c1N)CCCC3 here?
Answer: 10.1 µM (active)

Question: Which EC50 [1] does the source give for CCOC(=O)C1CCCN(S(=O)(=O)c2ccc(OC)c3ccccc23)C1 (stereo not drawn) here?
Answer: 0.647 µM (active)

Question: Which IC50 [2] does the source give for CN(C)c1ccc(NC(=O)CC(NCc2ccccn2)C(=O)O)cc1 (stereo not drawn) here?
Answer: 1.51 µM (active)

Question: With CCCCc1nc(CN2CCCC(C(=O)c3ccc(SC)cc3)C2)c[nH]1 (stereo not drawn) as the compound, how does the EC50 [3] read?
Answer: 1.88 µM (active)

Question: Which EC50 [3] does the source give for O=C(c1cccc(C(=O)N2CCN(c3ccccc3)CC2)c1)N1CCN(c2ccccc2)CC1 here?
Answer: 1.06 µM (active)

Question: What does the source list for CCN(CC)c1ccc(/C=C(/C#N)c2nc3ccccc3[nH]2)c(OC(C)C)c1?
Answer: IC50 [4]: 1.19 µM (active); EC50 [1]: 3.84 µM (active); EC50 [5]: 8.13 µM (active); EC50 [6]: 11.1 µM (active); EC50 [7]: 3.96 µM (active); EC50 [8]: 11.2 µM (active)

Question: For CN(C)CCN(C(=O)C1CCCCC1)c1nc2cc3c(cc2s1)OCO3, which EC50 [3] is on record?
Answer: 2.66 µM (active)

Question: What about the EC50 [9] of the same compound?
Answer: 6.68 µM (active)

Question: For COc1ccc(C(=O)Nc2cc(-c3ccccc3)ccc2C(=O)O)cc1, which IC50 [10] is on record?
Answer: > 25 µM (inactive)

Question: With COc1ccc(C(=O)Nc2cc(Cl)ccc2O)cc1 as the compound, how does the IC50 [10] read?
Answer: 25 µM (inactive)

Question: For O=C(Nc1cc(Cl)ccc1C(=O)O)c1ccc(Cc2ccccc2)cc1, which IC50 [10] is on record?
Answer: 13.6 µM (active)

Question: For Cc1ccc(S(=O)(=O)Nc2cccc(C(=O)NCC(c3ccco3)N3CCCC3)c2)cc1F (stereo not drawn), which EC50 [3] is on record?
Answer: 0.149 µM (active)

Question: What about the EC50 [9] of the same compound?
Answer: 1.5 µM (active)

Question: With COc1ccc(/C=c2\s/c(=C/C(=O)c3ccc(C)cc3)[nH]c2=O)c(OC)c1 as the compound, how does the IC50 [4] read?
Answer: 1.76 µM (active)

Question: What about the EC50 [11] of the same compound?
Answer: 10.7 µM (active)

Question: And the EC50 [12]?
Answer: > 99 µM (inactive)

Question: And the EC50 [13]?
Answer: > 99 µM (inactive)

Question: With COc1ccc(NC(=O)c2ccccc2C(=O)O)cc1 as the compound, how does the IC50 [10] read?
Answer: > 25 µM (inactive)
